Laboratory results as given in PubChem BioAssay (NCI).
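Protocol summary: plate cells (96-well), add compound at 5 concentrations, incubate 48 h, interpolate endpoints linearly. TGI: concentration producing complete growth inhibition.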

How the values were obtained:
Assay in all cases: growth of human tumour cells (NCI), 48 h
[1] = tested on: 786-0 renal
[2] = tested on: A498 renal
[3] = tested on: A549 NSCLC
[4] = tested on: ACHN renal
[5] = tested on: BT-549 breast
[6] = tested on: CAKI-1 renal
[7] = tested on: CCRF-CEM leukemia
[8] = tested on: COLO 205 colon
[9] = tested on: DU-145 prostate
[10] = tested on: EKVX NSCLC
[11] = tested on: HCC-2998 colon
[12] = tested on: HCT-116 colon
[13] = tested on: HCT-15 colon
[14] = tested on: HL-60(TB) leukemia
[15] = tested on: HOP-92 NSCLC
[16] = tested on: HS 578T breast
[17] = tested on: HT29 colon
[18] = tested on: IGROV1 ovarian
[19] = tested on: K-562 leukemia
[20] = tested on: KM12 colon
[21] = tested on: LOX IMVI melanoma
[22] = tested on: M14 melanoma
[23] = tested on: MALME-3M melanoma
[24] = tested on: MCF7 breast
[25] = tested on: MDA-MB-231 breast
[26] = tested on: MDA-MB-435
[27] = tested on: MDA-N
[28] = tested on: MOLT-4 leukemia
[29] = tested on: NCI-H226 lung
[30] = tested on: NCI-H23 lung
[31] = tested on: NCI-H460 lung
[32] = tested on: NCI-H522 lung
[33] = tested on: NCI/ADR-RES ovarian
[34] = tested on: OVCAR-4 ovarian
[35] = tested on: OVCAR-5 ovarian
[36] = tested on: OVCAR-8 ovarian
[37] = tested on: RPMI-8226 leukemia
[38] = tested on: RXF 393 renal
[39] = tested on: SF-268 CNS
[40] = tested on: SF-295 CNS
[41] = tested on: SF-539 CNS
[42] = tested on: SK-MEL-28 melanoma
[43] = tested on: SK-MEL-5 melanoma
[44] = tested on: SK-OV-3 ovarian
[45] = tested on: SN12C renal
[46] = tested on: SNB-19 CNS
[47] = tested on: SNB-75 CNS
[48] = tested on: SW-620 colon
[49] = tested on: T-47D breast
[50] = tested on: TK-10 renal
[51] = tested on: U251 CNS
[52] = tested on: UACC-257 melanoma
[53] = tested on: UACC-62 melanoma
[54] = tested on: UO-31 renal
[55] = tested on: HOP-62 NSCLC
[56] = tested on: OVCAR-3 ovarian
[57] = tested on: PC-3 prostate
[58] = tested on: SK-MEL-2 melanoma

Measured: TGI

CC(=O)NCCCCNCCCNC(C)=O
> 100 µM: [1] | [2] | [3] | [4] | [5] | [6] | [7] | [8] | [9] | [10] | [11] | [12] | [13] | [14] | [15] | [16] | [17] | [18] | [19] | [20] | [21] | [22] | [23] | [24] | [25] | [26] | [27] | [28] | [29] | [30] | [31] | [32] | [33] | [34] | [35] | [36] | [37] | [38] | [39] | [40] | [41] | [42] | [43] | [44] | [45] | [46] | [47] | [48] | [49] | [50] | [51] | [52] | [53] | [54]

O=C(NCCN(CCNC(=O)c1cccc(=O)n1O)CCN(CCNC(=O)c1cccc(=O)n1O)CCNC(=O)c1cccc(=O)n1O)c1cccc(=O)n1O
> 100 µM: [1] | [2] | [3] | [4] | [5] | [6] | [7] | [8] | [9] | [11] | [12] | [13] | [14] | [55] | [15] | [16] | [17] | [18] | [19] | [20] | [21] | [22] | [23] | [24] | [25] | [26] | [27] | [29] | [30] | [31] | [32] | [33] | [56] | [34] | [35] | [36] | [57] | [37] | [38] | [39] | [40] | [41] | [58] | [42] | [43] | [44] | [45] | [46] | [47] | [48] | [49] | [50] | [51] | [52] | [53] | [54]
